Experimental data as given in patent publication US20230212222A1 (ANYGEN CO., LTD., priority 2020, published 2023).
Square brackets hold non-standard residues; d marks the D form. Peptide text beside a SMILES is read from it. * marks the point of attachment. His(Trt) = N[C@@H](Cc1cn(C(c2ccccc2)(c2ccccc2)c2ccccc2)cn1)C(=O)O; His(τ-CHPh2) = N[C@@H](Cc1cn(C(c2ccccc2)c2ccccc2)cn1)C(=O)O; Tyr(3-NO2) = N[C@@H](Cc1ccc(O)c([N+](=O)[O-])c1)C(=O)O; Tyr(3-Cl) = N[C@@H](Cc1ccc(O)c(Cl)c1)C(=O)O; dPhe(4-Me) = Cc1ccc(C[C@@H](N)C(=O)O)cc1; dPhe(4-F) = N[C@H](Cc1ccc(F)cc1)C(=O)O; Octanoyl = CCCCCCCC(=O)*

Molecular target: T1, GPR39 (Homo sapiens, UniProt O43194)
T1 sequence (O43194 1-453): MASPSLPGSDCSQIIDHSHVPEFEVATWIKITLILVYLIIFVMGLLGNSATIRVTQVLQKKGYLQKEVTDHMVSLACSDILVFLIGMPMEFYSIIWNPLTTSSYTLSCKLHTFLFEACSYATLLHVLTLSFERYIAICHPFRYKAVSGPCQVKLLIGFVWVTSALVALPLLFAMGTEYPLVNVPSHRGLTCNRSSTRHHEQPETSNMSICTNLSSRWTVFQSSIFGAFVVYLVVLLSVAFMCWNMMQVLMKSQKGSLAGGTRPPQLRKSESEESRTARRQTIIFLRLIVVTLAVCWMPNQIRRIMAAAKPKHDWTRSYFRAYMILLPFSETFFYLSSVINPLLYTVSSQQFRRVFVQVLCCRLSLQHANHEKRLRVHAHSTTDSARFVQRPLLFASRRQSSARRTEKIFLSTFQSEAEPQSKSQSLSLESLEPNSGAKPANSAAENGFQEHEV
Description: Specifically, the fibroblast cell line CV-1 (1×10^5 cells/ml, Korea Cell Line Bank) was cultured in a 96 well cell culture plate for 24 hours, and then treated with GPR39 inserted into adenovirus and SRE (serum response element) luciferase at 50 MOI (multiplicity of infection) and 25 MOI virus for 3 hours, respectively, and then cultured for 24 hours.

SMILES | ECmax (-fold induction over basal)
CCCCCCCC(=O)NCCCC[C@H](NC(=O)[C@@H](N)Cc1cn(C(c2ccccc2)(c2ccccc2)c2ccccc2)cn1)C(=O)N[C@@H](Cc1ccccc1)C(=O)N[C@@H](Cc1ccc(O)cc1)C(=O)N[C@@H](CCC(N)=O)C(=O)N[C@@H](CC(N)=O)C(=O)N[C@@H](CCC(N)=O)C(=O)N[C@@H](C)C(=O)N[C@@H](CCCNC(=N)N)C(=O)N[C@@H](Cc1ccccc1)C(N)=O [HKFY-43, (S)-N1-((S)-1-(((S)-1-(((S)-1-amino-1-oxo-3-phenylpropan-2-yl)amino)-5-guanidino-1-oxopentan-2-yl)amino)-1-oxopropan-2-yl)-2-((2S,5S,8S,11S,14S)-2-(2-amino-2-oxoethyl)-14-((S)-2-amino-3-(1-trityl-1H-imidazol-4-yl)propanamido)-5-(3-amino-3-oxopropyl)-11-benzyl-8-(4-hydroxybenzyl)-4,7,10,13,20-pentaoxo-3,6,9,12,19-pentaazaheptacosanamido)pentanediamide] (H-[His(Trt)]K(Octanoyl)FYQNQARF-NH2) | 12.1 ± 0.02 -fold induction over basal
CCCCCCCC(=O)NCCCC[C@H](NC(=O)[C@@H](N)Cc1cn(Cc2cccc3ccccc23)cn1)C(=O)N[C@@H](Cc1ccccc1)C(=O)N[C@@H](Cc1ccc(O)cc1)C(=O)O [HKFY-10, N2-(Nt-(naphthalen-1-ylmethyl)-L-histidyl)-N6-octanoyl-L-lysyl-L-phenylalanyl-L-tyrosine] | 14 ± 2.12 -fold induction over basal
CCCCCCCC(=O)NCCCC[C@H](NC(=O)[C@@H](N)Cc1c[nH]c(-c2ccc(C(C)(C)C)cc2)n1)C(=O)N[C@H](Cc1ccc(C)cc1)C(=O)N[C@@H](Cc1ccc(O)cc1)C(=O)O [HKFY-60, ((R)-2-((S)-2-((S)-2-amino-3-(2-(4-(tert-butyl)phenyl)-1H-imidazol-4-yl)propanamido)-6-octanamidohexanamido)-3-(p-tolyl)propanoyl)-L-tyrosine] | 28.2 ± 2.5 -fold induction over basal
CCCCCCCC(=O)NCCCC[C@H](NC(=O)[C@@H](N)Cc1cn(C(c2ccccc2)(c2ccccc2)c2ccccc2)cn1)C(=O)N[C@@H](Cc1ccccc1)C(=O)N[C@@H](Cc1ccc(O)cc1)C(=O)N[C@@H](CO)C(=O)N[C@@H](CC(=O)O)C(=O)N[C@@H](CCC(N)=O)C(=O)N[C@@H](CCC(N)=O)C(=O)N[C@@H](C)C(=O)N[C@@H](CCCNC(=N)N)C(=O)N[C@@H](Cc1ccccc1)C(N)=O [HKFY-38, (3S,6S,9S,12S,15S)-15-((S)-2-amino-3-(1-trityl-1H-imidazol-4-yl)propanamido)-12-benzyl-3-(((6S,9S,12S,15S)-1,18-diamino-6-(((S)-1-amino-1-oxo-3-phenylpropan-2-yl)carbamoyl)-12-(3-amino-3-oxopropyl)-1-imino-9-methyl-8,11,14,18-tetraoxo-2,7,10,13-tetraazaoctadecan-15-yl)carbamoyl)-9-(4-hydroxybenzyl)-6-(hydroxymethyl)-5,8,11,14,21-pentaoxo-4,7,10,13,20-pentaazaoctacosanoic acid] (H-[His(Trt)]K(Octanoyl)FYSDQQARF-NH2) | 16.5 ± 0.02 -fold induction over basal
CCCCCCCC(=O)NCCCC[C@H](NC(=O)[C@H](CO)NC(=O)CNC(=O)[C@@H](N)Cc1cn(C(c2ccccc2)(c2ccccc2)c2ccccc2)cn1)C(=O)N[C@@H](Cc1ccccc1)C(=O)N[C@@H](Cc1ccc(O)cc1)C(=O)O [HKFY-53, N6-octanoyl-N2-(Nt-trityl-L-histidylglycyl-L-seryl)-L-lysyl-L-phenylalanyl-L-tyrosine] (H-[His(Trt)]GSK(Octanoyl)FY-OH) | 8 ± 2.12 -fold induction over basal
CCCCCCCC(=O)NCCCC[C@H](NC(=O)[C@@H](N)Cc1cn(C(c2ccccc2)(c2ccccc2)c2ccccc2)cn1)C(=O)N[C@@H](Cc1ccccc1)C(=O)N[C@@H](CO)C(=O)O [HKFY-50, N6-octanoyl-N2-(Nt-trityl-L-histidyl)-L-lysyl-L-phenylalanyl-L-serine] (H-[His(Trt)]K(Octanoyl)FS-OH) | 16.2 ± 1.5 -fold induction over basal
CCCCCCCC(=O)NCCCC[C@H](N)C(=O)N[C@@H](Cc1cn(C(c2ccccc2)(c2ccccc2)c2ccccc2)cn1)C(=O)N[C@@H](Cc1ccccc1)C(=O)N[C@@H](Cc1ccc(O)cc1)C(=O)O [HKFY-55, Na-(N6-octanoyl-L-lysyl)-Nt-trityl-L-histidyl-L-phenylalanyl-L-tyrosine] (H-K(Octanoyl)[His(Trt)]FY-OH) | 16.8 ± 2.5 -fold induction over basal
CCCCCCCC(=O)NCCCC[C@H](NC(=O)[C@@H](N)Cc1cn([C@H](c2ccccc2)c2ccc(Cl)cc2)cn1)C(=O)N[C@@H](Cc1ccccc1)C(=O)N[C@@H](Cc1ccc(O)cc1)C(=O)O [HKFY-21, N2-(Nt-((R)-(4-chlorophenyl)(phenyl)methyl)-L-histidyl)-N6-octanoyl-L-lysyl-L-phenylalanyl-L-tyrosine] | 18.3 ± 2.5 -fold induction over basal
CCCCCCCC(=O)NCCCC[C@H](NC(=O)[C@@H](N)Cc1cn(C(c2ccccc2)(c2ccccc2)c2ccccc2)cn1)C(=O)N[C@H](Cc1ccc(F)cc1)C(=O)N[C@@H](Cc1ccc(O)cc1)C(=O)O [HKFY-28, ((R)-2-((S)-2-((S)-2-amino-3-(1-trityl-1H-imidazol-4-yl)propanamido)-6-octanamidohexanamido)-3-(4-fluorophenyl)propanoyl)-L-tyrosine] (H-[His(Trt)]K(Octanoyl)[dPhe(4-F)]Y-OH) | 22.95 ± 2.58 -fold induction over basal
CCCCCCCC(=O)NCCCC[C@H](NC(=O)[C@@H](N)Cc1cn(C(c2ccccc2)c2ccccc2)cn1)C(=O)N[C@H](Cc1ccc(C)cc1)C(=O)N[C@@H](Cc1ccc(O)c(Cl)c1)C(=O)O [HKFY-67, (S)-2-((R)-2-((S)-2-((S)-2-amino-3-(1-benzhydryl-1H-imidazol-4-yl)propanamido)-6-octanamidohexanamido)-3-(p-tolyl)propanamido)-3-(3-chloro-4-hydroxyphenyl)propanoic acid] (H-[His(τ-CHPh2)]K(Octanoyl)[dPhe(4-Me)][Tyr(3-Cl)]-OH) | 10.2 ± 1.51 -fold induction over basal
CCCCCCCC(=O)NCCCC[C@H](NC(=O)[C@@H](N)Cc1cn(C(c2ccccc2)(c2ccccc2)c2ccccc2)cn1)C(=O)N[C@@H](Cc1ccc(O)cc1)C(=O)N[C@@H](Cc1ccccc1)C(=O)O [HKFY-47, N6-octanoyl-N2-(Nt-trityl-L-histidyl)-L-lysyl-L-tyrosyl-L-phenylalanine] (H-[His(Trt)]K(Octanoyl)YF-OH) | 13 ± 1.7 -fold induction over basal
CCCCCCCC(=O)NCCCC[C@H](NC(=O)[C@@H](N)Cc1cn(C(c2ccccc2)c2ccccc2)cn1)C(=O)N[C@H](Cc1ccc(C)cc1)C(=O)N[C@@H](Cc1ccc(O)c([N+](=O)[O-])c1)C(=O)O [HKFY-68, (S)-2-((R)-2-((S)-2-((S)-2-amino-3-(1-benzhydryl-1H-imidazol-4-yl)propanamido)-6-octanamidohexanamido)-3-(p-tolyl)propanamido)-3-(4-hydroxy-3-nitrophenyl)propanoic acid] (H-[His(τ-CHPh2)]K(Octanoyl)[dPhe(4-Me)][Tyr(3-NO2)]-OH) | 10.8 ± 1.41 -fold induction over basal
